Results: article PMC11436758, “Computer-aided drug design to generate a unique antibiotic family” (Nature Communications, 2024)
≈ marks a conversion by molar mass, not a printed value. Where “and” joins values, the source holds several entries; their conditions need not be identical. Equal values may be shown once.

Assays:
[1] = biological target: T1, AcpS^H-/108A (Escherichia coli, UniProt P24224, H108A); experiment: Inhibition of purified AcpS site-directed mutant by DNM0547; type: biochemical, E. coli; conditions: for AcpS rate nM/min, Mean / AcpS rate: Suppl Fig 3, [AcpS_H108A] 5nM; for AcpS rate: replicates
T1 construct: 6x-His (C); made in house

[2] = test system: S. epidermidis (MRSE); experiment: MIC, clinical and laboratory strains; type: cell-based
Method: (§1) The medium employed for the assay was Mueller Hinton II Broth (MHB II; Becton-Dickinson, Sparks, MD, USA). Agar plates used for the organisms were trypticase soy agar plus 5% sheep blood (BD; Sparks, MD, USA). MIC assay plates were prepared using the CLSI broth microdilution procedure. Automated liquid handlers (Multidrop 384, Biomek 2000 and Biomek FX) were used to conduct serial dilutions and liquid transfers. A standardized inoculum of each organism was prepared per CLSI methods. Suspensions were prepared to equal a 0.5 McFarland standard, followed by a 1:20 dilution in test media. The inocula were dispensed into sterile reservoirs divided by length (Beckman Colter) and the Biomek 2000 was used to inoculate the plates. Daughter plates were placed on the Biomek 2000 work surface in reverse orientation so that inoculation took place from low to high drug concentration. The Biomek 2000 delivered 10 μL of the diluted suspension into each well. These inoculations yielded a final cell concentration in the daughter plates of ~5 × 10^5 colony-forming units/mL in each well. The wells of the daughter plates ultimately contained 185 μL of broth, 5 μL of drug solution, and 10 μL of bacterial inoculum. Plates were covered with a sterile lid on the top plate, placed in plastic bags, and incubated at 35 °C for ~18 h. The microplates were viewed from the bottom using a plate viewer and the MIC was read. The MIC was recorded as the lowest concentration of drug that inhibited visible growth of the organism.

[3] = test system: S. aureus (MRSA); experiment: MIC, clinical and laboratory strains; type: cell-based
Method: as §1

[4] = test system: S. epidermidis (VISE); experiment: MIC, clinical and laboratory strains; type: cell-based
Method: as §1

[5] = test system: S. aureus (VISA); experiment: MIC, clinical and laboratory strains; type: cell-based
Method: as §1

[6] = test system: S. epidermidis (MSSE); experiment: MIC, clinical and laboratory strains; type: cell-based
Method: as §1

[7] = test system: S. aureus (MSSA); experiment: MIC, clinical and laboratory strains; type: cell-based
Method: as §1

T1 sequence (P24224 whole entry H108A): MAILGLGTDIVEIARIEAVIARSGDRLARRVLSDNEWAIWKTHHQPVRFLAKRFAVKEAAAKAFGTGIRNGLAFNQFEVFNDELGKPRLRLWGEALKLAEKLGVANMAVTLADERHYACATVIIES

## CC(C)c1cc(Cl)ccc1-c1cc(-c2nnn[nH]2)c(-c2ccc(Cl)cc2C(C)C)s1 [DNM0547]
[1]
  IC50: 5.6 µM
[1]; Drug Conc 1 uM
  AcpS rate nM/min, Mean: 7.81 nM/min
  AcpS rate: 7.96 nM/min and 7.81 nM/min and 7.64 nM/min
[1]; Drug Conc 2 uM
  AcpS rate nM/min, Mean: 6.86 nM/min
  AcpS rate: 6.91 nM/min and 7.01 nM/min and 6.66 nM/min
[1]; Drug Conc 4 uM
  AcpS rate nM/min, Mean: 4.72 nM/min
  AcpS rate: 4.74 nM/min and 4.76 nM/min and 4.66 nM/min
[1]; Drug Conc 8 uM
  AcpS rate nM/min, Mean: 3.23 nM/min
  AcpS rate: 2.93 nM/min and 3.30 nM/min and 3.44 nM/min
[1]; Drug Conc 16 uM
  AcpS rate nM/min, Mean: 2.83 nM/min
  AcpS rate: 3.20 nM/min and 2.39 nM/min and 2.90 nM/min
[1]; Drug Conc 32 uM
  AcpS rate nM/min, Mean: 1.69 nM/min
  AcpS rate: 1.65 nM/min and 1.74 nM/min and 1.68 nM/min
[1]; Drug Conc 64 uM
  AcpS rate nM/min, Mean: 1.60 nM/min
  AcpS rate: 1.52 nM/min and 1.63 nM/min and 1.65 nM/min
[1]; Drug Conc 128 uM
  AcpS rate nM/min, Mean: 1.34 nM/min
  AcpS rate: 1.38 nM/min and 1.44 nM/min and 1.20 nM/min
[1]; read-out: % of untreated, Suppl Fig 3, [AcpS_H108A] 5nM, Drug Conc 1 uM, replicates
  remaining activity at 1 µM: 105%
[1]; read-out: % of untreated, Suppl Fig 3, [AcpS_H108A] 5nM, Drug Conc 2 uM, replicates
  remaining activity at 2 µM: 90.9%
[1]; read-out: % of untreated, Suppl Fig 3, [AcpS_H108A] 5nM, Drug Conc 4 uM, replicates
  remaining activity at 4 µM: 62.4%
[1]; read-out: % of untreated, Suppl Fig 3, [AcpS_H108A] 5nM, Drug Conc 8 uM, replicates
  remaining activity at 8 µM: 38.5%
[1]; read-out: % of untreated, Suppl Fig 3, [AcpS_H108A] 5nM, Drug Conc 16 uM, replicates
  remaining activity at 16 µM: 42.1%
[1]; read-out: % of untreated, Suppl Fig 3, [AcpS_H108A] 5nM, Drug Conc 32 uM, replicates
  remaining activity at 32 µM: 21.7%
[1]; read-out: % of untreated, Suppl Fig 3, [AcpS_H108A] 5nM, Drug Conc 64 uM, replicates
  remaining activity at 64 µM: 20%
[1]; read-out: % of untreated, Suppl Fig 3, [AcpS_H108A] 5nM, Drug Conc 128 uM, replicates
  remaining activity at 128 µM: 18.1%
[2]; S. epidermidis (MRSE) 3679
  MIC: 2 µg/mL (≈ 4.37 µM)
[2]; S. epidermidis (MRSE) 3680
  MIC: 2 µg/mL (≈ 4.37 µM)
[2]; S. epidermidis (MRSE) 3681
  MIC: 1 µg/mL (≈ 2.19 µM)
[2]; S. epidermidis (MRSE) 3683
  MIC: 2 µg/mL (≈ 4.37 µM)
[2]; S. epidermidis (MRSE) 3745
  MIC: 8 µg/mL (≈ 17.5 µM)
[2]; S. epidermidis (MRSE) 3746
  MIC: 2 µg/mL (≈ 4.37 µM)
[2]; S. epidermidis (MRSE) 3747
  MIC: 2 µg/mL (≈ 4.37 µM)
[3]; S. aureus (MRSA) 2167
  MIC: 1 µg/mL (≈ 2.19 µM)
[3]; S. aureus (MRSA) 2168
  MIC: 1 µg/mL (≈ 2.19 µM)
[3]; S. aureus (MRSA) 2169
  MIC: 2 µg/mL (≈ 4.37 µM)
[3]; S. aureus (MRSA) 2170
  MIC: 1 µg/mL (≈ 2.19 µM)
[3]; S. aureus (MRSA) 2171
  MIC: 1 µg/mL (≈ 2.19 µM)
[3]; S. aureus (MRSA) 2293
  MIC: 2 µg/mL (≈ 4.37 µM)
[3]; S. aureus (MRSA) 2294
  MIC: 1 µg/mL (≈ 2.19 µM)
[3]; S. aureus (MRSA) 2295
  MIC: 1 µg/mL (≈ 2.19 µM)
[3]; S. aureus (MRSA) 2296
  MIC: 1 µg/mL (≈ 2.19 µM)
[3]; S. aureus (MRSA) 2297
  MIC: 2 µg/mL (≈ 4.37 µM)
[3]; S. aureus (MRSA) 3880
  MIC: 1 µg/mL (≈ 2.19 µM)
[3]; S. aureus (MRSA) 5373
  MIC: 1 µg/mL (≈ 2.19 µM)
[3]; S. aureus (MRSA) 5666
  MIC: 1 µg/mL (≈ 2.19 µM)
[3]; S. aureus (MRSA) 5702
  MIC: 1 µg/mL (≈ 2.19 µM)
[3]; S. aureus (MRSA) 5999
  MIC: 1 µg/mL (≈ 2.19 µM)
[3]; S. aureus (MRSA) 6165
  MIC: 1 µg/mL (≈ 2.19 µM)
[3]; S. aureus (MRSA) 6169
  MIC: 1 µg/mL (≈ 2.19 µM)
[3]; S. aureus (MRSA) 6174
  MIC: 1 µg/mL (≈ 2.19 µM)
[3]; S. aureus (MRSA) 6311
  MIC: 1 µg/mL (≈ 2.19 µM)
[3]; S. aureus (MRSA) 6312
  MIC: 2 µg/mL (≈ 4.37 µM)
[3]; S. aureus (MRSA) 6313
  MIC: 1 µg/mL (≈ 2.19 µM)
[3]; S. aureus (MRSA) 6315
  MIC: 1 µg/mL (≈ 2.19 µM)
[3]; S. aureus (MRSA) 6320
  MIC: 1 µg/mL (≈ 2.19 µM)
[3]; S. aureus (MRSA) 6498
  MIC: 2 µg/mL (≈ 4.37 µM)
[3]; S. aureus (MRSA) 6501
  MIC: 2 µg/mL (≈ 4.37 µM)
[3]; S. aureus (MRSA) 6505
  MIC: 1 µg/mL (≈ 2.19 µM)
[3]; S. aureus (MRSA) 6506
  MIC: 2 µg/mL (≈ 4.37 µM)
[3]; S. aureus (MRSA) NRS382/2119
  MIC: 1 µg/mL (≈ 2.19 µM)
[3]; S. aureus (MRSA) NRS383/2120
  MIC: 1 µg/mL (≈ 2.19 µM)
[3]; S. aureus (MRSA) NRS384/2011
  MIC: 2 µg/mL (≈ 4.37 µM)
[4]; S. epidermidis (VISE) 2020
  MIC: 8 µg/mL (≈ 17.5 µM)
[4]; S. epidermidis (VISE) 2021
  MIC: 1 µg/mL (≈ 2.19 µM)
[4]; S. epidermidis (VISE) 2022
  MIC: 2 µg/mL (≈ 4.37 µM)
[4]; S. epidermidis (VISE) 2023
  MIC: 4 µg/mL (≈ 8.74 µM)
[4]; S. epidermidis (VISE) 2024
  MIC: 32 µg/mL (≈ 70 µM)
[4]; S. epidermidis (VISE) 2025
  MIC: 4 µg/mL (≈ 8.74 µM)
[5]; S. aureus (VISA) 1724
  MIC: 2 µg/mL (≈ 4.37 µM)
[5]; S. aureus (VISA) 2012
  MIC: 2 µg/mL (≈ 4.37 µM)
[5]; S. aureus (VISA) 2013
  MIC: 2 µg/mL (≈ 4.37 µM)
[5]; S. aureus (VISA) 2014
  MIC: 2 µg/mL (≈ 4.37 µM)
[5]; S. aureus (VISA) 2015
  MIC: 2 µg/mL (≈ 4.37 µM)
[5]; S. aureus (VISA) 2016
  MIC: 2 µg/mL (≈ 4.37 µM)
[5]; S. aureus (VISA) 2017
  MIC: 2 µg/mL (≈ 4.37 µM)
[5]; S. aureus (VISA) 2018
  MIC: 2 µg/mL (≈ 4.37 µM)
[5]; S. aureus (VISA) 2019
  MIC: 1 µg/mL (≈ 2.19 µM)
[5]; S. aureus (VISA) 2123
  MIC: 2 µg/mL (≈ 4.37 µM)
[5]; S. aureus (VISA) NRS1/1723
  MIC: 2 µg/mL (≈ 4.37 µM)
[6]; S. epidermidis (MSSE) 3234
  MIC: 4 µg/mL (≈ 8.74 µM)
[6]; S. epidermidis (MSSE) 3602
  MIC: 2 µg/mL (≈ 4.37 µM)
[6]; S. epidermidis (MSSE) 3609
  MIC: 4 µg/mL (≈ 8.74 µM)
[6]; S. epidermidis (MSSE) 3617
  MIC: 1 µg/mL (≈ 2.19 µM)
[6]; S. epidermidis (MSSE) 3620
  MIC: 2 µg/mL (≈ 4.37 µM)
[6]; S. epidermidis (MSSE) 3621
  MIC: 1 µg/mL (≈ 2.19 µM)
[7]; S. aureus (MSSA) 2127
  MIC: 1 µg/mL (≈ 2.19 µM)
[7]; S. aureus (MSSA) 6167
  MIC: 2 µg/mL (≈ 4.37 µM)
[7]; S. aureus (MSSA) 6168
  MIC: 1 µg/mL (≈ 2.19 µM)
[7]; S. aureus (MSSA) 6170
  MIC: 1 µg/mL (≈ 2.19 µM)
[7]; S. aureus (MSSA) 6316
  MIC: 2 µg/mL (≈ 4.37 µM)
[7]; S. aureus (MSSA) 6317
  MIC: 1 µg/mL (≈ 2.19 µM)
[7]; S. aureus (MSSA) 6318
  MIC: 1 µg/mL (≈ 2.19 µM)
[7]; S. aureus (MSSA) 6499
  MIC: 2 µg/mL (≈ 4.37 µM)
[7]; S. aureus (MSSA) 6500
  MIC: 1 µg/mL (≈ 2.19 µM)
[7]; S. aureus (MSSA) 6502
  MIC: 1 µg/mL (≈ 2.19 µM)
